Assay [1] deals with T1, cytochrome c oxidase (CcO, complex IV) bearing the COX4-1 regulatory subunit (Homo sapiens, UniProt P00395+P13073).
T1 construct: gene COX4I1; CcO in mitochondrial extracts of UTMZ, U251-TgCOX4-1 (FLAG-tagged COX4-1) and GSC (J × 12, J × 39) cells; with COX1 and the other CcO subunits
Nature of the assay: CcO activity and Michaelis-Menten kinetics in mitochondrial extracts. The class given is biochemical.

Assay [2] concerns the target T2, cytochrome c oxidase (CcO, complex IV), purified from bovine heart; COX4-1 the most abundant COX4 isoform (Bos taurus, UniProt P00396+P00423).
T2 construct: gene COX4I1; purified CcO from bovine heart (Sigma-Aldrich C5499), whole multi-subunit complex; with COX1 and the other CcO subunits
Nature of the assay: inhibition of purified CcO activity, dose-response. The class given is biochemical.

These results are taken from publication PMC5514931, “Repositioning chlorpromazine for treating chemoresistant glioma through the inhibition of cytochrome c oxidase bearing the COX4-1 regulatory subunit” (Oncotarget, 2017).

Usually IC50 stands for the concentration needed to halve the response being measured. A higher IC50 goes with lower potency.

T1 sequence (P00414 whole entry): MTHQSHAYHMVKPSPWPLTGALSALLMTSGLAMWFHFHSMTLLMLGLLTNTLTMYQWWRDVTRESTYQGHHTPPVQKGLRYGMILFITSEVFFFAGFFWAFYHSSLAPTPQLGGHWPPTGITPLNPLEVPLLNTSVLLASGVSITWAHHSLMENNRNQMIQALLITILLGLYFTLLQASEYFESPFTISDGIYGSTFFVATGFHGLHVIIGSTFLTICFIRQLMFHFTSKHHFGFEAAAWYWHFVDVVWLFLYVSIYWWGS
T1 sequence (P00403 whole entry, further chain): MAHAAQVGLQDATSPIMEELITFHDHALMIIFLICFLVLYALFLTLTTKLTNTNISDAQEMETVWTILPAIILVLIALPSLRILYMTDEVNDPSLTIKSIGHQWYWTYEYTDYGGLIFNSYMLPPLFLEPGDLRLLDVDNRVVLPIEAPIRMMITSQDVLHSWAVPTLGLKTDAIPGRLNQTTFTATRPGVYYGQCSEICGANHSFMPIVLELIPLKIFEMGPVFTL
T1 sequence (P13073 23-169): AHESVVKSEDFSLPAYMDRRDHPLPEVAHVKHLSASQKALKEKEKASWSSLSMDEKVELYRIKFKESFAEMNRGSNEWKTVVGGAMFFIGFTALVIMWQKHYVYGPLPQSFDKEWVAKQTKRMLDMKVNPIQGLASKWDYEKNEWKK

For the compound `CN(C)CCCN1c2ccccc2Sc2ccc(Cl)cc21` [CPZ, Chlorpromazine], the values for the IC50 in assay [1] and in assay [2] were roughly 2 µM and 25.8 ± 3.75 µM, respectively.
